From PMC11206519, “Multi-Endpoint Toxicological Assessment of Chrysin Loaded Oil-in-Water Emulsion System in Different Biological Models” (Nanomaterials, 2024)
Where two headings read alike, the source gives them in different places.

Legend:
RAW 264.7 = experiment: MTT cytotoxicity assay; assay type: cell-based, murine; details: Mus musculus, RAW264.7, 48 h
Procedure: RAW 264.7 (murine macrophage-like cell), 3T3-L1 adipocyte (murine adipocyte), HEK293 (human embryonic kidney cell), and LX-2 (human hepatic stellate cell) were obtained from American Type Culture Collection (ATCC, Manassas, VA, USA). RAW 264.7 macrophages were cultured as a suspension culture in an ultra-low attachment culture dish, whereas the others were cultured as adherent cells in a cell culture flask. The cells were grown in Dulbecco’s Modified Eagle Medium (DMEM) with L-glutamine, supplemented with 10% fetal bovine serum (FBS) (RAW 264.7, HEK293, and LX-2) or 10% fetal calf serum (FCS) (3T3-L1) and 1% penicillin under 5% CO2, at 37 °C. […] Blank-ES was used as a vehicle control. The amount of blank-ES was equal to chrysin-ES amount that was used for the treatment. The cytotoxicity of chrysin, chrysin-ES, and blank-ES in each cell was determined using an MTT assay. […] Then, the solution was gently removed, and the formazan crystal was dissolved with dimethyl sulfoxide (DMSO). The soluble formazan was measured using a microplate reader (Bio-TEK Synergy Hybrid Reader H4) at 540 nm. The cell viability is directly related to the absorbance of formazan. The percentage of cell viability was calculated using the following equation. Cell viability (%) = (Absorbance (sample))/(Absorbance (control)) × 100

[1] = cited from earlier work
[2] = test system: D. melanogaster trans-heterozygous mwh+/+flr3 larvae of the ST cross; experiment: SMART wing spot test, mutagenicity, ST cross; assay type: in vivo, Drosophila melanogaster; details: for Statistical diagnosis, Small Single / Statistical diagnosis, Total Spots: vs DI
Procedure: (§3) The somatic mutation and recombination test, or the wing spot test, using D. melanogaster was employed as an in vivo system to assess the mutagenicity and anti-mutagenicity of chrysin-ES. Two different crosses were conducted: (i) a standard cross (ST) and (ii) a high bioactivation cross (HB) [18]. The standard cross larvae were obtained from virgin female of flr3/TM3, Ser crossed with males of mwh/mwh, while the HB cross larvae expressing cytochrome P450 enzymes involved in xenobiotic biotransformation were obtained from virgin females of ORR/ORR; flr^3/In (3LR) TM3, ri p^psep l (3)89Aa bx^34e e Bd^s crossed with males of mwh/mwh. The flies were cultured at a constant temperature of 25 ± 1 °C and 60–70% RH at photoperiod 12:12 (light/dark). To evaluate the mutagenicity of chrysin and chrysin-ES, a hundred larva F1 progenies derived from the above crossing were fed with instant Drosophila medium (Formula 4-24®), Carolina, Burlington, NC, USA) containing chrysin or chrysin-ES (20–120 µg/mL). DI was used as a negative control, while 20 mM urethane (URE) was used as a positive control. The larvae were reared on each medium until pupation at 25 °C. After that, forty wings of surviving flies in each group were collected for mutant analysis. The mutant spots on the wings, including small single spots, large single spots, and twin spots, were counted.

Sprague Dawley rats = details: ref 45 (Yao et al.), cited from earlier work
S. typhimurium TA100 = experiment: Ames test, anti-mutagenicity
Procedure: (§1) Furthermore, the anti-mutagenicity of the samples was performed by a similar procedure, as mentioned above. […] The percentage inhibition (decrease revertant colony number) was calculated as in the following equation:Anti-mutagenicity (%) = [1 − (b/a)] × 100 • a = revertant colony number induced via standard mutagen (positive control). • b = revertant colony number induced by standard mutagen in the presence of each sample treatment.
(§2) The percent of inhibition between 0–20%, 21–40%, 41–60%, and higher than 60% indicate negligible, weak, moderate, and strong anti-mutagenicity, respectively.

S. typhimurium TA98 = experiment: Ames test, anti-mutagenicity
Procedure: as §1, §2

[3] = test system: D. melanogaster trans-heterozygous mwh+/+flr3 larvae of the HB cross; experiment: SMART wing spot test, mutagenicity, HB cross; assay type: in vivo, Drosophila melanogaster
Procedure: as §3

[4] = AF-2 0.1 µg/plate, −S9, 5.7 µM/plate
[5] = AF-2 0.1 µg/plate, −S9, 11.4 µM/plate
[6] = AF-2 0.1 µg/plate, −S9, 22.8 µM/plate
[7] = IQ 0.05 µg/plate, +S9, 0.35 µM/plate
[8] = IQ 0.05 µg/plate, +S9, 0.70 µM/plate
[9] = IQ 0.05 µg/plate, +S9, 1.40 µM/plate
[10] = IQ 0.05 µg/plate, +S9, 2.85 µM/plate
[11] = IQ 0.05 µg/plate, +S9, 5.70 µM/plate
[12] = Salmonella enterica, TYPHIMURIUM, read-out: % mutagenic inhibition, AF-2 0.1 µg/plate, −S9, 5.7 µM/plate
[13] = Salmonella enterica, TYPHIMURIUM, read-out: % mutagenic inhibition, AF-2 0.1 µg/plate, −S9, 11.4 µM/plate
[14] = Salmonella enterica, TYPHIMURIUM, read-out: % mutagenic inhibition, AF-2 0.1 µg/plate, −S9, 22.8 µM/plate
[15] = PhIP 0.1 µg/plate, +S9, 0.35 µM/plate
[16] = PhIP 0.1 µg/plate, +S9, 0.70 µM/plate
[17] = PhIP 0.1 µg/plate, +S9, 1.40 µM/plate
[18] = PhIP 0.1 µg/plate, +S9, 2.85 µM/plate
[19] = PhIP 0.1 µg/plate, +S9, 5.70 µM/plate

Structure (SMILES): O=c1cc(-c2ccccc2)oc2cc(O)cc(O)c12 [Chrysin, 5,7-dihydroxyflavone]
- IC20 (RAW 264.7; decreases cell viability by 20%): ~43 µM
- IC50 (RAW 264.7; decreases cell viability by 50%): ~69 µM
- chrysin uptake eliminated in the feces [1]: 98%
- Mutant spots per individual (number of spots), Large Single ([2]; 20 µg/mL): 0 (0)
- Mutant spots per individual (number of spots), Small Single ([2]; 20 µg/mL): 0.38 (15)
- Mutant spots per individual (number of spots), Total Spots ([2]; 20 µg/mL): 0.38 (15)
- Mutant spots per individual (number of spots), Twin ([2]; 20 µg/mL): 0 (0)
- Statistical diagnosis, Small Single ([2]; 20 µg/mL): −
- Statistical diagnosis, Total Spots ([2]; 20 µg/mL): −
- Mutant spots per individual (number of spots), Large Single ([2]; 40 µg/mL): 0.03 (1)
- Mutant spots per individual (number of spots), Total Spots ([2]; 40 µg/mL): 0.38 (15)
- Mutant spots per individual (number of spots), Twin ([2]; 40 µg/mL): 0 (0)
- Statistical diagnosis, Small Single ([2]; 40 µg/mL): −
- Statistical diagnosis, Total Spots ([2]; 40 µg/mL): −
- Mutant spots per individual (number of spots), Large Single ([2]; 80 µg/mL): 0 (0)
- Mutant spots per individual (number of spots), Small Single ([2]; 80 µg/mL): 0.58 (23)
- Mutant spots per individual (number of spots), Total Spots ([2]; 80 µg/mL): 0.58 (23)
- Mutant spots per individual (number of spots), Twin ([2]; 80 µg/mL): 0 (0)
- Statistical diagnosis, Small Single ([2]; 80 µg/mL): −
- Statistical diagnosis, Total Spots ([2]; 80 µg/mL): −
- Mutant spots per individual (number of spots), Large Single ([2]; 120 µg/mL): 0.08 (3)
- Mutant spots per individual (number of spots), Small Single ([2]; 120 µg/mL): 0.83 (33)
- Mutant spots per individual (number of spots), Total Spots ([2]; 120 µg/mL): 0.90 (36)
- Mutant spots per individual (number of spots), Twin ([2]; 120 µg/mL): 0 (0)
- Statistical diagnosis, Small Single ([2]; 120 µg/mL): −
- Statistical diagnosis, Total Spots ([2]; 120 µg/mL): −
- mutagenicity in SMART ([2]; 20–120 μg/mL, ST and HB cross): non-mutagenic
- mortality (Sprague Dawley rats; single oral 5000 mg/kg BW): 40%
- LD50 (Sprague Dawley rats; single oral administration): ~5000 mg/kg BW
- Inhibitory Classification (S. typhimurium TA100; [4]): Mild
- Number of Revertant Colonies (S. typhimurium TA100; [4]): 252 ± 14
- Inhibitory Classification (S. typhimurium TA100; [5]): Mild
- Number of Revertant Colonies (S. typhimurium TA100; [5]): 250 ± 6
- Inhibitory Classification (S. typhimurium TA100; [6]): Mild
- Number of Revertant Colonies (S. typhimurium TA100; [6]): 235 ± 20
- Inhibitory Classification (S. typhimurium TA100; [7]): Moderate
- Number of Revertant Colonies (S. typhimurium TA100; [7]): 328 ± 32
- Inhibitory Classification (S. typhimurium TA100; [8]): Strong
- Number of Revertant Colonies (S. typhimurium TA100; [8]): 243 ± 16
- Inhibitory Classification (S. typhimurium TA100; [9]): Strong
- Number of Revertant Colonies (S. typhimurium TA100; [9]): 161 ± 10
- Inhibitory Classification (S. typhimurium TA100; [10]): Strong
- Number of Revertant Colonies (S. typhimurium TA100; [10]): 106 ± 15
- Inhibitory Classification (S. typhimurium TA100; [11]): Strong
- Number of Revertant Colonies (S. typhimurium TA100; [11]): 47 ± 10
- inhibition at […] (S. typhimurium TA100; [12]): 32%
- inhibition at 11.4 µM (S. typhimurium TA100; [13]): 32%
- inhibition at 22.8 µM (S. typhimurium TA100; [14]): 37%
- inhibition at 0.35 µM (S. typhimurium TA100; Salmonella enterica, TYPHIMURIUM, read-out: % mutagenic inhibition, IQ 0.05 µg/plate, +S9, 0.35 µM/plate): 56%
- inhibition at 0.7 µM (S. typhimurium TA100; Salmonella enterica, TYPHIMURIUM, read-out: % mutagenic inhibition, IQ 0.05 µg/plate, +S9, 0.70 µM/plate): 67%
- inhibition at 1.4 µM (S. typhimurium TA100; Salmonella enterica, TYPHIMURIUM, read-out: % mutagenic inhibition, IQ 0.05 µg/plate, +S9, 1.40 µM/plate): 78%
- inhibition at 2.85 µM (S. typhimurium TA100; Salmonella enterica, TYPHIMURIUM, read-out: % mutagenic inhibition, IQ 0.05 µg/plate, +S9, 2.85 µM/plate): 86%
- inhibition at […] (S. typhimurium TA100; Salmonella enterica, TYPHIMURIUM, read-out: % mutagenic inhibition, IQ 0.05 µg/plate, +S9, 5.70 µM/plate): 94%
- Inhibitory Classification (S. typhimurium TA98; [4]): Mild
- Number of Revertant Colonies (S. typhimurium TA98; [4]): 166 ± 23
- Inhibitory Classification (S. typhimurium TA98; [5]): Moderate
- Number of Revertant Colonies (S. typhimurium TA98; [5]): 140 ± 39
- Inhibitory Classification (S. typhimurium TA98; [6]): Mild
- Number of Revertant Colonies (S. typhimurium TA98; [6]): 164 ± 56
- Inhibitory Classification (S. typhimurium TA98; [15]): Moderate
- Number of Revertant Colonies (S. typhimurium TA98; [15]): 214 ± 9
- Inhibitory Classification (S. typhimurium TA98; [16]): Strong
- Number of Revertant Colonies (S. typhimurium TA98; [16]): 153 ± 10
- Inhibitory Classification (S. typhimurium TA98; [17]): Strong
- Number of Revertant Colonies (S. typhimurium TA98; [17]): 77 ± 12
- Inhibitory Classification (S. typhimurium TA98; [18]): Strong
- Number of Revertant Colonies (S. typhimurium TA98; [18]): 71 ± 9
- Inhibitory Classification (S. typhimurium TA98; [19]): Strong
- Number of Revertant Colonies (S. typhimurium TA98; [19]): 45 ± 18
- inhibition at […] (S. typhimurium TA98; [12]): 34%
- inhibition at 11.4 µM (S. typhimurium TA98; [13]): 45%
- inhibition at 22.8 µM (S. typhimurium TA98; [14]): 35%
- inhibition at 0.35 µM (S. typhimurium TA98; Salmonella enterica, TYPHIMURIUM, read-out: % mutagenic inhibition, PhIP 0.1 µg/plate, +S9, 0.35 µM/plate): 46%
- inhibition at 0.7 µM (S. typhimurium TA98; Salmonella enterica, TYPHIMURIUM, read-out: % mutagenic inhibition, PhIP 0.1 µg/plate, +S9, 0.70 µM/plate): 62%
- inhibition at 1.4 µM (S. typhimurium TA98; Salmonella enterica, TYPHIMURIUM, read-out: % mutagenic inhibition, PhIP 0.1 µg/plate, +S9, 1.40 µM/plate): 81%
- inhibition at 2.85 µM (S. typhimurium TA98; Salmonella enterica, TYPHIMURIUM, read-out: % mutagenic inhibition, PhIP 0.1 µg/plate, +S9, 2.85 µM/plate): 82%
- inhibition at […] (S. typhimurium TA98; Salmonella enterica, TYPHIMURIUM, read-out: % mutagenic inhibition, PhIP 0.1 µg/plate, +S9, 5.70 µM/plate): 89%
- Mutant spots per individual (number of spots), Large Single ([3]; 20 µg/mL): 0.03 (1)
- Mutant spots per individual (number of spots), Total Spots ([3]; 20 µg/mL): 0.23 (9)
- Mutant spots per individual (number of spots), Twin ([3]; 20 µg/mL): 0.03 (1)
- Mutant spots per individual (number of spots), Large Single ([3]; 40 µg/mL): 0.03 (1)
- Mutant spots per individual (number of spots), Total Spots ([3]; 40 µg/mL): 0.15 (6)
- Mutant spots per individual (number of spots), Twin ([3]; 40 µg/mL): 0 (0)
- Mutant spots per individual (number of spots), Large Single ([3]; 80 µg/mL): 0.03 (1)
- Mutant spots per individual (number of spots), Total Spots ([3]; 80 µg/mL): 0.15 (6)
- Mutant spots per individual (number of spots), Twin ([3]; 80 µg/mL): 0 (0)
- Mutant spots per individual (number of spots), Large Single ([3]; 120 µg/mL): 0 (0)
- Mutant spots per individual (number of spots), Small Single ([3]; 120 µg/mL): 0.08 (3)
- Mutant spots per individual (number of spots), Total Spots ([3]; 120 µg/mL): 0.08 (3)
- Mutant spots per individual (number of spots), Twin ([3]; 120 µg/mL): 0 (0)
- Statistical diagnosis, Small Single ([3]; 120 µg/mL, vs DI): −
- Statistical diagnosis, Total Spots ([3]; 120 µg/mL, vs DI): −
